# Laboratory results as given in ChEMBL document CHEMBL5647684, “Expression of Src and FAK in hepatocellular carcinoma and the effect of Src inhibitors on hepatocellular carcinoma in vitro” (2009).
# Columns and labels:
# Type in all cases: functional
# Huh-7 = experiment: Growth inhibition of human Huh-7 cells after 3 days by MTT assay; settings: time 3 day; for GI50: Homo sapiens, Huh-7, 72 h
# HepG2 = experiment: Growth inhibition of human HepG2 cells after 3 days by MTT assay; settings: time 3 day; for GI50: Homo sapiens, HepG2, 72 h
# PLC-PRF-5 = experiment: Growth inhibition of human PLC-PRF-5 cells after 3 days by MTT assay; settings: time 3 day
# Hep 3B2 = experiment: Growth inhibition of human Hep3B cells after 3 days by MTT assay; settings: time 3 day
GI50 (Huh-7) [nM],GI50 (HepG2) [nM],Compound,GI80 (Huh-7) [nM],GI80 (HepG2) [nM],"GI50 (PLC-PRF-5; Homo sapiens, PLC-PRF-5, 72 h) [nM]",GI80 (PLC-PRF-5) [nM],"GI50 (Hep 3B2; Homo sapiens, Hep3B, 72 h) [nM]",GI80 (Hep 3B2) [nM]
1970,> 50000,Cc1nc(Nc2ncc(C(=O)Nc3c(C)cccc3Cl)s2)cc(N2CCN(CCO)CC2)n1 [DASATINIB ANHYDROUS],7135,>50000,,,,
9,60,O=C(Cc1ccc(-c2ccc(OCCN3CCOCC3)cc2)cn1)NCc1ccccc1 [TIRBANIBULIN],23,3658,13,24,26,88
